Measured values: PMC5218480 (PLoS ONE, 2017)

System: MV-4-11 cells
Experiment: Gene expression microarray analysis (Affymetrix PrimeView) and GSEA
Assay type: cell-based, human
Parameters: RFU PODN (11730768_x_at) / Fold change /veh PODN (11730768_x_at) / RFU LINC00158 (11744669_a_at) / Fold change /veh LINC00158 (11744669_a_at) / RFU DUSP10 (11751237_a_at) / Fold change /veh DUSP10 (11751237_a_at) / RFU ID3 (11757404_x_at) / Fold change /veh ID3 (11757404_x_at) / RFU PLEKHG5 (11737974_s_at) / Fold change /veh PLEKHG5 (11737974_s_at) / RFU LRRC4B (11730491_at) / Fold change /veh LRRC4B (11730491_at) / RFU GIMAP4 (11747438_a_at) / Fold change /veh GIMAP4 (11747438_a_at) / RFU KRT8 (11758183_x_at) / Fold change /veh KRT8 (11758183_x_at) / RFU CNN1 (11734310_a_at) / Fold change /veh CNN1 (11734310_a_at) / RFU VPS37D (11726825_at) / Fold change /veh VPS37D (11726825_at) / RFU C10orf10 (11716522_x_at) / Fold change /veh C10orf10 (11716522_x_at) / RFU KIR2DL2 /// KIR2DL4 /// KIR2DL5A /// KIR2DL5B /// KIR2DS1 /// KIR2DS2 /// KIR2DS3 /// KIR2DS4 /// KIR3DL3 /// KIR3DL3 /// KIR3DS1 (11738374_at) / Fold change /veh KIR2DL2 /// KIR2DL4 /// KIR2DL5A /// KIR2DL5B /// KIR2DS1 /// KIR2DS2 /// KIR2DS3 /// KIR2DS4 /// KIR3DL3 /// KIR3DL3 /// KIR3DS1 (11738374_at) / RFU C1QL1 (11718748_at) / Fold change /veh C1QL1 (11718748_at) / RFU TMPRSS4 (11747572_a_at) / Fold change /veh TMPRSS4 (11747572_a_at) / RFU HAMP (11756126_x_at) / Fold change /veh HAMP (11756126_x_at) / RFU RNFT2 (11725882_a_at) / Fold change /veh RNFT2 (11725882_a_at) / RFU NR4A2 (11747474_a_at) / Fold change /veh NR4A2 (11747474_a_at) / RFU ABCC12 (11746883_a_at) / Fold change /veh ABCC12 (11746883_a_at) / RFU TMEM136 (11760407_x_at) / Fold change /veh TMEM136 (11760407_x_at) / RFU CLDN22 /// WWC2 (11732394_at) / Fold change /veh CLDN22 /// WWC2 (11732394_at) / RFU HLA-DPB1 (11760878_x_at) / Fold change /veh HLA-DPB1 (11760878_x_at) / RFU SPINT1 (11716480_a_at) / Fold change /veh SPINT1 (11716480_a_at) / RFU GAP43 (11754022_s_at) / Fold change /veh GAP43 (11754022_s_at) / RFU A4GNT (11735810_at) / Fold change /veh A4GNT (11735810_at) / RFU PRB3 (11715151_x_at) / Fold change /veh PRB3 (11715151_x_at) / RFU TUBB4B (11761932_at) / Fold change /veh TUBB4B (11761932_at) / RFU CAPN14 (11732068_a_at) / Fold change /veh CAPN14 (11732068_a_at) / RFU TMCC2 (11721928_a_at) / Fold change /veh TMCC2 (11721928_a_at) / RFU IRGQ (11745062_a_at) / Fold change /veh IRGQ (11745062_a_at) / RFU FAM174B (11720279_a_at) / Fold change /veh FAM174B (11720279_a_at) / RFU TMPRSS4 (11748680_a_at) / Fold change /veh TMPRSS4 (11748680_a_at) / RFU FAM212B (11763350_a_at) / Fold change /veh FAM212B (11763350_a_at) / RFU PLEKHG5 (11743358_a_at) / Fold change /veh PLEKHG5 (11743358_a_at) / RFU ZSCAN30 (11745921_a_at) / Fold change /veh ZSCAN30 (11745921_a_at) / RFU CMKLR1 (11741424_a_at) / Fold change /veh CMKLR1 (11741424_a_at) / RFU LOC101060620 /// MAPK8IP1 (11723275_at) / Fold change /veh LOC101060620 /// MAPK8IP1 (11723275_at) / RFU SPTSSB (11747773_x_at) / Fold change /veh SPTSSB (11747773_x_at) / RFU PRSS12 (11739890_at) / Fold change /veh PRSS12 (11739890_at) / RFU BIN1 (11741810_x_at) / Fold change /veh BIN1 (11741810_x_at) / RFU WNT11 (11732464_a_at) / Fold change /veh WNT11 (11732464_a_at) / RFU C10orf10 (11716521_a_at) / Fold change /veh C10orf10 (11716521_a_at) / RFU C5orf56 (11738089_at) / Fold change /veh C5orf56 (11738089_at) / RFU CYB561 (11721691_x_at) / Fold change /veh CYB561 (11721691_x_at) / RFU ANKRD19P (11752326_a_at) / Fold change /veh ANKRD19P (11752326_a_at) / RFU OR2T12 /// OR2T33 /// OR2T8 (11738714_s_at) / Fold change /veh OR2T12 /// OR2T33 /// OR2T8 (11738714_s_at) / RFU VCAN (11748164_a_at) / Fold change /veh VCAN (11748164_a_at) / RFU JSRP1 (11732532_at) / Fold change /veh JSRP1 (11732532_at) / RFU KRTAP10-11 (11738290_x_at) / Fold change /veh KRTAP10-11 (11738290_x_at) / RFU MYO3A (11730013_a_at) / Fold change /veh MYO3A (11730013_a_at) / RFU EBF3 (11725865_a_at) / Fold change /veh EBF3 (11725865_a_at) / RFU CAMK2N1 (11719241_x_at) / Fold change /veh CAMK2N1 (11719241_x_at) / RFU C5orf56 (11738088_a_at) / Fold change /veh C5orf56 (11738088_a_at) / RFU OLFML3 (11715873_a_at) / Fold change /veh OLFML3 (11715873_a_at) / RFU LOC100653217 /// NTM (11731650_a_at) / Fold change /veh LOC100653217 /// NTM (11731650_a_at) / RFU MAPK11 (11762145_a_at) / Fold change /veh MAPK11 (11762145_a_at) / RFU FIZ1 (11724087_x_at) / Fold change /veh FIZ1 (11724087_x_at) / RFU OASL (11726364_x_at) / Fold change /veh OASL (11726364_x_at) / RFU SOX15 (11748057_x_at) / Fold change /veh SOX15 (11748057_x_at) / RFU CD79A (11719716_a_at) / Fold change /veh CD79A (11719716_a_at) / RFU HIST1H1D (11736915_at) / Fold change /veh HIST1H1D (11736915_at) / RFU CASKIN2 (11723855_a_at) / Fold change /veh CASKIN2 (11723855_a_at) / RFU LOC730098 (11760151_x_at) / Fold change /veh LOC730098 (11760151_x_at) / RFU OR4N2 (11742367_at) / Fold change /veh OR4N2 (11742367_at) / RFU PRRT2 (11749266_a_at) / Fold change /veh PRRT2 (11749266_a_at) / RFU SNX32 (11753110_a_at) / Fold change /veh SNX32 (11753110_a_at) / RFU CDHR5 (11726645_a_at) / Fold change /veh CDHR5 (11726645_a_at) / RFU RCAN1 (11760418_a_at) / Fold change /veh RCAN1 (11760418_a_at) / RFU FAM167A (11723789_a_at) / Fold change /veh FAM167A (11723789_a_at) / RFU FAM26E (11764081_at) / Fold change /veh FAM26E (11764081_at) / RFU ISYNA1 (11749810_s_at) / Fold change /veh ISYNA1 (11749810_s_at) / RFU ACY1 (11761880_at) / Fold change /veh ACY1 (11761880_at) / RFU 11764098_at / Fold change /veh 11764098_at / RFU SAMD14 (11745864_x_at) / Fold change /veh SAMD14 (11745864_x_at) / RFU NPB (11741838_a_at) / Fold change /veh NPB (11741838_a_at) / RFU TMPRSS6 (11731388_a_at) / Fold change /veh TMPRSS6 (11731388_a_at) / RFU KRTAP10-2 (11738614_at) / Fold change /veh KRTAP10-2 (11738614_at) / RFU ARHGAP8 /// PRR5-ARHGAP8 (11727945_x_at) / Fold change /veh ARHGAP8 /// PRR5-ARHGAP8 (11727945_x_at) / RFU KRTAP5-7 /// NADSYN1 (11734609_at) / Fold change /veh KRTAP5-7 /// NADSYN1 (11734609_at) / RFU RASL12 (11751679_a_at) / Fold change /veh RASL12 (11751679_a_at) / RFU CDKN2B (11736163_a_at) / Fold change /veh CDKN2B (11736163_a_at) / RFU PRF1 (11729649_at) / Fold change /veh PRF1 (11729649_at) / RFU, ZNF638 /// ZNF638-IT1 / Fold change vs veh, ZNF638 /// ZNF638-IT1 / RFU, PANK3 / Fold change vs veh, PANK3 / RFU, SH3YL1 / Fold change vs veh, SH3YL1 / RFU, ZEB2 / Fold change vs veh, ZEB2 / RFU, NRIP1 / Fold change vs veh, NRIP1 / RFU, PTTG1IP / Fold change vs veh, PTTG1IP / RFU, CAPN2 / Fold change vs veh, CAPN2 / RFU, MED14 / Fold change vs veh, MED14 / RFU, SNORA58 / Fold change vs veh, SNORA58 / RFU, C1orf63 / Fold change vs veh, C1orf63 / RFU, LRRFIP1 / Fold change vs veh, LRRFIP1 / RFU, NDUFAF7 / Fold change vs veh, NDUFAF7 / RFU, SLC12A2 / Fold change vs veh, SLC12A2 / RFU, IBTK / Fold change vs veh, IBTK / RFU, ESF1 / Fold change vs veh, ESF1 / Fold change vs veh, TMEM50B / RFU, TAOK1 / Fold change vs veh, TAOK1 / RFU, ACBD3 / Fold change vs veh, ACBD3 / RFU, TMA16 / Fold change vs veh, TMA16 / RFU, RWDD3 / Fold change vs veh, RWDD3 / RFU, BCAT1 / Fold change vs veh, BCAT1 / RFU, EDEM3 / Fold change vs veh, EDEM3 / RFU, TMEM33 / Fold change vs veh, TMEM33 / RFU, WDR75 / Fold change vs veh, WDR75 / RFU, AHCTF1 / Fold change vs veh, AHCTF1 / RFU, TFRC / Fold change vs veh, TFRC / RFU, ZDHHC17 / Fold change vs veh, ZDHHC17 / RFU, NOM1 / Fold change vs veh, NOM1 / RFU, ARL8B / Fold change vs veh, ARL8B / RFU, ZBTB11 / Fold change vs veh, ZBTB11 / RFU, TAMM41 / Fold change vs veh, TAMM41 / RFU, KIAA1704 /// LOC100996395 / Fold change vs veh, KIAA1704 /// LOC100996395 / RFU, ING1 / Fold change vs veh, ING1 / RFU, TRMT61B / Fold change vs veh, TRMT61B / RFU, FUBP3 / Fold change vs veh, FUBP3 / RFU, TP53 / Fold change vs veh, TP53 / RFU, TNKS2 / Fold change vs veh, TNKS2 / RFU, ZFP14 / Fold change vs veh, ZFP14 / RFU, ACTR2 / Fold change vs veh, ACTR2 / RFU, PPP3R1 / Fold change vs veh, PPP3R1 / RFU, PIK3R1 / Fold change vs veh, PIK3R1 / RFU, HNRNPA1 / Fold change vs veh, HNRNPA1 / RFU, RNF170 / Fold change vs veh, RNF170 / RFU, ZNF28 / Fold change vs veh, ZNF28 / RFU, RNGTT / Fold change vs veh, RNGTT / RFU, OGT / Fold change vs veh, OGT / RFU, BRD1 / Fold change vs veh, BRD1 / RFU, MARS / Fold change vs veh, MARS / RFU, ZNF655 / Fold change vs veh, ZNF655 / RFU, FAHD1 / Fold change vs veh, FAHD1 / RFU, BDP1 / Fold change vs veh, BDP1 / RFU, LRRCC1 / Fold change vs veh, LRRCC1 / RFU, ARID1A / Fold change vs veh, ARID1A / RFU, ZNF146 / Fold change vs veh, ZNF146 / RFU, ZNF330 / Fold change vs veh, ZNF330 / RFU, GPN3 / Fold change vs veh, GPN3 / RFU, C9orf123 / Fold change vs veh, C9orf123 / RFU, N4BP2L2 / Fold change vs veh, N4BP2L2 / RFU, ARFIP1 / Fold change vs veh, ARFIP1 / RFU, FAM179B / Fold change vs veh, FAM179B / RFU, BCL10 / Fold change vs veh, BCL10 / RFU, UHRF1BP1L / Fold change vs veh, UHRF1BP1L / RFU, BET1 / Fold change vs veh, BET1 / RFU, CNOT2 / Fold change vs veh, CNOT2 / RFU, ZNF268 / Fold change vs veh, ZNF268 / Fold change vs veh, ZNF507 / RFU, DGCR2 / Fold change vs veh, DGCR2 / RFU, WDSUB1 / Fold change vs veh, WDSUB1 / Fold change vs veh, HSP90B1 /// MIR3652 / RFU, ADSS / Fold change vs veh, ADSS / RFU, GK / Fold change vs veh, GK / RFU, ZNF148 / Fold change vs veh, ZNF148 / RFU, TAF9 / Fold change vs veh, TAF9 / RFU, SLC1A5 / Fold change vs veh, SLC1A5 / RFU, SLMO2 / Fold change vs veh, SLMO2 / RFU, ABCC4 / Fold change vs veh, ABCC4 / RFU, LOC101060439 /// RAP1B / Fold change vs veh, LOC101060439 /// RAP1B / RFU, RFX7 / Fold change vs veh, RFX7 / RFU, GTPBP10 / Fold change vs veh, GTPBP10 / RFU, CNEP1R1 / Fold change vs veh, CNEP1R1 / RFU, BIVM-ERCC5 /// ERCC5 / Fold change vs veh, BIVM-ERCC5 /// ERCC5 / RFU, ILF3 / Fold change vs veh, ILF3 / RFU 11762660_at / Fold change /veh 11762660_at / RFU VCAN (11757783_s_at) / Fold change /veh VCAN (11757783_s_at) / RFU DDX43 (11728927_at) / Fold change /veh DDX43 (11728927_at) / RFU KRT8 (11758188_x_at) / Fold change /veh KRT8 (11758188_x_at) / RFU NKD1 (11759106_at) / Fold change /veh NKD1 (11759106_at) / RFU SRD5A1 (11742802_a_at) / Fold change /veh SRD5A1 (11742802_a_at) / RFU TPSAB1 /// TPSB2 (11721975_s_at) / Fold change /veh TPSAB1 /// TPSB2 (11721975_s_at) / RFU GSTM3 (11746129_a_at) / Fold change /veh GSTM3 (11746129_a_at) / RFU IL23R (11737362_x_at) / Fold change /veh IL23R (11737362_x_at) / RFU TMEM51 (11727254_a_at) / Fold change /veh TMEM51 (11727254_a_at) / RFU PIWIL2 (11732686_x_at) / Fold change /veh PIWIL2 (11732686_x_at) / RFU ORM1 (11744905_x_at) / Fold change /veh ORM1 (11744905_x_at) / RFU CCDC152 (11743942_at) / Fold change /veh CCDC152 (11743942_at) / RFU ECM1 (11717891_a_at) / Fold change /veh ECM1 (11717891_a_at) / RFU IL23R (11748794_a_at) / Fold change /veh IL23R (11748794_a_at) / RFU TNFAIP8L3 (11732012_x_at) / Fold change /veh TNFAIP8L3 (11732012_x_at) / RFU MBOAT4 (11741988_at) / Fold change /veh MBOAT4 (11741988_at) / RFU 11764193_at / Fold change /veh 11764193_at / RFU TMEM53 (11763286_at) / Fold change /veh TMEM53 (11763286_at) / RFU MAGEB2 (11727129_at) / Fold change /veh MAGEB2 (11727129_at) / RFU TMEM200A (11744735_a_at) / Fold change /veh TMEM200A (11744735_a_at) / RFU CCDC152 (11751479_a_at) / Fold change /veh CCDC152 (11751479_a_at) / RFU FAM211A (11726209_a_at) / Fold change /veh FAM211A (11726209_a_at) / RFU RGS16 (11746705_a_at) / Fold change /veh RGS16 (11746705_a_at) / RFU VCAN (11755009_s_at) / Fold change /veh VCAN (11755009_s_at) / RFU RHOB (11743442_s_at) / Fold change /veh RHOB (11743442_s_at) / RFU RGS16 (11720943_a_at) / Fold change /veh RGS16 (11720943_a_at) / RFU RGS16 (11720944_at) / Fold change /veh RGS16 (11720944_at) / RFU, VPS4B / Fold change vs veh, VPS4B / RFU, CREB1 / Fold change vs veh, CREB1 / RFU, DNAJC13 / Fold change vs veh, DNAJC13 / RFU, GNAQ / Fold change vs veh, GNAQ / RFU, CDK5R1 / Fold change vs veh, CDK5R1 / RFU, ZRANB3 / Fold change vs veh, ZRANB3 / RFU, CUL4A / Fold change vs veh, CUL4A / RFU, CCNY / Fold change vs veh, CCNY / RFU, UFL1 / Fold change vs veh, UFL1 / RFU, COG3 / Fold change vs veh, COG3 / RFU, DIAPH2 / Fold change vs veh, DIAPH2 / RFU, SKA2 / Fold change vs veh, SKA2 / RFU, AFF3 / Fold change vs veh, AFF3 / RFU, LMF1 / Fold change vs veh, LMF1 / RFU, IPO11 / Fold change vs veh, IPO11 / RFU, DFFB / Fold change vs veh, DFFB / RFU, FOXP1 / Fold change vs veh, FOXP1 / RFU, CARD8 / Fold change vs veh, CARD8 / RFU, STRN3 / Fold change vs veh, STRN3 / RFU, ADK / Fold change vs veh, ADK / RFU, RASSF2 / Fold change vs veh, RASSF2 / RFU, WIPF1 / Fold change vs veh, WIPF1 / RFU, LARP1B / Fold change vs veh, LARP1B / RFU, RASA1 / Fold change vs veh, RASA1 / RFU, RB1 / Fold change vs veh, RB1 / RFU, PPFIA1 / Fold change vs veh, PPFIA1 / RFU, MAT2A / Fold change vs veh, MAT2A / RFU, CCT5 / Fold change vs veh, CCT5 / RFU, WDR92 / Fold change vs veh, WDR92 / RFU, CUX1 / Fold change vs veh, CUX1 / RFU, TTC7A / Fold change vs veh, TTC7A / RFU, TMEM135 / Fold change vs veh, TMEM135 / RFU, DEPTOR / Fold change vs veh, DEPTOR / RFU, CPM / Fold change vs veh, CPM / RFU, DNAJB6 / Fold change vs veh, DNAJB6 / RFU, CACNA2D3 / Fold change vs veh, CACNA2D3 / RFU, DTX4 / Fold change vs veh, DTX4 / RFU, TFCP2 / Fold change vs veh, TFCP2 / RFU, GMCL1 /// GMCL1P1 / Fold change vs veh, GMCL1 /// GMCL1P1 / RFU, AEBP2 / Fold change vs veh, AEBP2 / RFU, SNHG1 /// SNORD22 /// SNORD25 /// SNORD26 /// SNORD27 /// SNORD28 /// SNORD29 /// SNORD31 / Fold change vs veh, SNHG1 /// SNORD22 /// SNORD25 /// SNORD26 /// SNORD27 /// SNORD28 /// SNORD29 /// SNORD31 / Fold change (Aza/veh), C12orf56 (ProbeSet 11735607_a_at) / Fold change (ACY-1035/veh), C12orf56 (ProbeSet 11735607_a_at) / Fold change (Aza/veh), FGFR1OP (ProbeSet 11751329_s_at) / Fold change (ACY-1035/veh), FGFR1OP (ProbeSet 11751329_s_at) / Fold change (Aza/veh), VPS36 (ProbeSet 11739960_a_at) / Fold change (ACY-1035/veh), VPS36 (ProbeSet 11739960_a_at) / RFU SYPL1 (11715823_x_at) / Fold change /veh SYPL1 (11715823_x_at) / RFU IGFBP7 (11715501_s_at) / Fold change /veh IGFBP7 (11715501_s_at) / RFU REEP3 (11722064_at) / Fold change /veh REEP3 (11722064_at) / RFU IGLL1 (11728026_x_at) / Fold change /veh IGLL1 (11728026_x_at): dose or concentration left out as unconfirmed
Conditions: ProbeSet 11740781_a_at; LIST B

Nc1ccc(-c2cccs2)cc1NC(=O)c1ccc2c(c1)cc(C1CC1)n2CCN1CCOCC1 [ACY-1035]
Fold change vs veh, ILF3: 0.88
